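Test compounds were applied to cells in 96-well plates for 48 hours at 5 doses. GI50 = concentration required for 50% inhibition of growth.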 Calls of active or inactive are those of the source. No stated cut-off is given here; in the data, active = GI50 up to about 1.1 µM and inactive = higher.
What was measured:
Assay in all cases: NCI anticancer screen, dose series, 48 h
SK-MEL-5 = tested on: SK-MEL-5
SNB-19 = tested on: SNB-19
SW-620 = tested on: SW-620
MOLT-4 = tested on: MOLT-4
NCI-H23 = tested on: NCI-H23
SK-OV-3 = tested on: SK-OV-3
UO-31 = tested on: UO-31
XF498 = tested on: XF498
UACC-257 = tested on: UACC-257
RPMI-8226 = tested on: RPMI-8226
SF-268 = tested on: SF-268
CCRF-CEM = tested on: CCRF-CEM
SK-MEL-2 = tested on: SK-MEL-2
CAKI-1 = tested on: CAKI-1
U-251 = tested on: U-251
ACHN = tested on: ACHN
HT-29 = tested on: HT-29
TK-10 = tested on: TK-10
HL-60 = tested on: HL-60
HOP-92 = tested on: HOP-92
NCI-H226 = tested on: NCI-H226
M14 = tested on: M14
HCT-116 = tested on: HCT-116
M19-MEL = tested on: M19-MEL
NCI-H522 = tested on: NCI-H522
SK-MEL-28 = tested on: SK-MEL-28
OVCAR-4 = tested on: OVCAR-4
RXF 393 = tested on: RXF 393
SNB-75 = tested on: SNB-75
LOX IMVI = tested on: LOX IMVI
SF-539 = tested on: SF-539
DMS-273 = tested on: DMS-273
SR = tested on: SR
K562 = tested on: K562
DMS-114 = tested on: DMS-114
OVCAR-8 = tested on: OVCAR-8
NCI-H460 = tested on: NCI-H460
HOP-62 = tested on: HOP-62
LXFL 529 = tested on: LXFL 529
KM-20L2 = tested on: KM-20L2
OVCAR-5 = tested on: OVCAR-5
A498 = tested on: A498
SN12C = tested on: SN12C
UACC-62 = tested on: UACC-62
EKVX = tested on: EKVX
A549 = tested on: A549
IGROV-1 = tested on: IGROV-1
COLO 205 = tested on: COLO 205
HCT-15 = tested on: HCT-15
SF-295 = tested on: SF-295
KM12 = tested on: KM12
HCC 2998 = tested on: HCC 2998
DLD-1 = tested on: DLD-1
Malme-3M = tested on: Malme-3M
786-0 = tested on: 786-0

Compound: COC(=O)C(Cc1ccc(N(C)C)cc1)(NC(=O)c1ccccc1)P(=O)(OC)OC (stereo not drawn)
- GI50 (SK-MEL-5): > 100 µM (inactive)
- GI50 (SNB-19): > 100 µM (inactive)
- GI50 (SW-620): > 100 µM (inactive)
- GI50 (MOLT-4): > 100 µM (inactive)
- GI50 (NCI-H23): > 100 µM (inactive)
- GI50 (SK-OV-3): > 100 µM (inactive)
- GI50 (UO-31): > 100 µM (inactive)
- GI50 (XF498): > 100 µM (inactive)
- GI50 (UACC-257): > 100 µM (inactive)
- GI50 (RPMI-8226): > 100 µM (inactive)
- GI50 (SF-268): > 100 µM (inactive)
- GI50 (CCRF-CEM): > 100 µM (inactive)
- GI50 (SK-MEL-2): > 100 µM (inactive)
- GI50 (CAKI-1): > 100 µM (inactive)
- GI50 (U-251): > 100 µM (inactive)
- GI50 (ACHN): > 100 µM (inactive)
- GI50 (HT-29): > 100 µM (inactive)
- GI50 (TK-10): > 100 µM (inactive)
- GI50 (HL-60): > 100 µM (inactive)
- GI50 (HOP-92): > 100 µM (inactive)
- GI50 (NCI-H226): > 100 µM (inactive)
- GI50 (M14): > 100 µM (inactive)
- GI50 (HCT-116): > 100 µM (inactive)
- GI50 (M19-MEL): > 100 µM (inactive)
- GI50 (NCI-H522): > 100 µM (inactive)
- GI50 (SK-MEL-28): > 100 µM (inactive)
- GI50 (OVCAR-4): > 100 µM (inactive)
- GI50 (RXF 393): > 100 µM (inactive)
- GI50 (SNB-75): > 100 µM (inactive)
- GI50 (LOX IMVI): > 100 µM (inactive)
- GI50 (SF-539): > 100 µM (inactive)
- GI50 (DMS-273): > 100 µM (inactive)
- GI50 (SR): > 100 µM (inactive)
- GI50 (K562): > 100 µM (inactive)
- GI50 (DMS-114): > 100 µM (inactive)
- GI50 (OVCAR-8): > 100 µM (inactive)
- GI50 (NCI-H460): > 100 µM (inactive)
- GI50 (HOP-62): > 100 µM (inactive)
- GI50 (LXFL 529): > 100 µM (inactive)
- GI50 (KM-20L2): > 100 µM (inactive)
- GI50 (OVCAR-5): > 100 µM (inactive)
- GI50 (A498): > 100 µM (inactive)
- GI50 (SN12C): > 100 µM (inactive)
- GI50 (UACC-62): > 100 µM (inactive)
- GI50 (EKVX): > 100 µM (inactive)
- GI50 (A549): > 100 µM (inactive)
- GI50 (IGROV-1): > 100 µM (inactive)
- GI50 (COLO 205): > 100 µM (inactive)
- GI50 (HCT-15): > 100 µM
- GI50 (SF-295): > 100 µM (inactive)
- GI50 (KM12): > 100 µM (inactive)
- GI50 (HCC 2998): > 100 µM (inactive)

Compound: C=C(Cl)Cc1c(O)c2c(c(O)c1CC(=C)Cl)C(=O)c1ccccc1C2=O
- GI50 (SK-MEL-5): > 100 µM (inactive)
- GI50 (DLD-1): > 100 µM (inactive)
- GI50 (SW-620): > 100 µM (inactive)
- GI50 (MOLT-4): > 100 µM (inactive)
- GI50 (SK-OV-3): > 100 µM (inactive)
- GI50 (XF498): > 100 µM (inactive)
- GI50 (RPMI-8226): > 100 µM (inactive)
- GI50 (CCRF-CEM): > 100 µM (inactive)
- GI50 (SK-MEL-2): > 100 µM (inactive)
- GI50 (CAKI-1): > 100 µM (inactive)
- GI50 (U-251): > 100 µM (inactive)
- GI50 (ACHN): > 100 µM (inactive)
- GI50 (TK-10): > 100 µM (inactive)
- GI50 (HL-60): > 100 µM (inactive)
- GI50 (M14): > 100 µM (inactive)
- GI50 (OVCAR-4): > 100 µM (inactive)
- GI50 (Malme-3M): > 100 µM (inactive)
- GI50 (LOX IMVI): > 100 µM (inactive)
- GI50 (DMS-273): > 100 µM (inactive)
- GI50 (SR): > 100 µM (inactive)
- GI50 (K562): > 100 µM (inactive)
- GI50 (DMS-114): > 100 µM (inactive)
- GI50 (OVCAR-8): > 100 µM (inactive)
- GI50 (786-0): > 100 µM (inactive)
- GI50 (HOP-62): > 100 µM (inactive)
- GI50 (LXFL 529): > 100 µM (inactive)
- GI50 (KM-20L2): > 100 µM (inactive)
- GI50 (OVCAR-5): > 100 µM (inactive)
- GI50 (SN12C): > 100 µM (inactive)
- GI50 (UACC-62): > 100 µM (inactive)
- GI50 (EKVX): > 100 µM (inactive)
- GI50 (A549): > 100 µM (inactive)
- GI50 (IGROV-1): > 100 µM (inactive)
- GI50 (COLO 205): > 100 µM (inactive)
- GI50 (HCT-15): > 100 µM
- GI50 (HCC 2998): > 100 µM (inactive)
